Like-named read-outs stand apart in the source and are kept apart here.
Target: T1, D. desulfuricans AhbA/B (sirohaem decarboxylase) (Desulfovibrio desulfuricans, UniProt B8J364+B8J3A4)
T1 construct: gene Ddes_0286; full-length AhbA (untagged) and AhbB with N-terminal hexa-His tag (kept), coexpressed in E. coli; heterodimer, 40 kDa by gel filtration
T1 sequence (B8J364 1-173): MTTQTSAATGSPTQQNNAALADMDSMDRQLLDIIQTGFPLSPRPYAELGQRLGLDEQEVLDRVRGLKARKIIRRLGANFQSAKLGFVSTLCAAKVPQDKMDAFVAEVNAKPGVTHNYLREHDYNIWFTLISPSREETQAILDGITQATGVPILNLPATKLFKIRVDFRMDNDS
T1 sequence (B8J3A4 1-159): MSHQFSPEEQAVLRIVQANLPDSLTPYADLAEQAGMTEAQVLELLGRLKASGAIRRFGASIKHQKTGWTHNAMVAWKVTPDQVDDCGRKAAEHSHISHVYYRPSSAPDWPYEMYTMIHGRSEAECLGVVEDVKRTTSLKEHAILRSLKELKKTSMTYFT
Assay: anaerobic stopped assay, MS quantification, global fit
Assay type: biochemical
Details: competitive model of both substrates and product, single active site, 23 μM sirohaem, 2.3 μM enzyme

| Substance | Km (intermediate formed in situ from sirohaem, read-out: Km2) [µM] | Km (read-out: Km1) [µM] |
| --- | --- | --- |
| monodecarboxysirohaem [MDSH] | 9.94 ± 1.19 | – |
| sirohaem [SH] | – | 11.7 ± 3.36 |

From article PMC4145669, “The structure, function and properties of sirohaem decarboxylase - an enzyme with structural homology to a transcription factor family that is part of the alternative haem biosynthesis pathway” (Molecular Microbiology, 2014)
